Publication PMC8779255, “Determining the Anticancer Activity of Sphingosine Kinase Inhibitors Containing Heteroatoms in Their Tail Structure” (Pharmaceutics, 2022)
Where two headings read alike, the source gives them in different places.

How the values were obtained:
[1] = system: HCT116 cells; assay: MTT cell viability assay; format: cell-based, human; settings: for IC50: Homo sapiens, HCT-116, read-out: relative IC50 (cell viability)
Experimental: (§1) The HT29 and HCT116 cells (human colon cancer), AGS (human gastric cancer), and MIA PaCa-2 cells (human pancreatic cancer) were purchased from Korean Cell Line Bank (Seoul, Korea). Cancer cells were maintained in RPMI (HT29 and AGS) and DMEM (HCT116 and MIA PaCa-2) culture media supplemented with 10% fetal bovine serum (FBS) and 100 U/mL penicillin and streptomycin at 37 °C in a 95% humidified incubator containing 5% CO2. The cytotoxic effect of the compounds was assessed using the MTT cell viability assay. Briefly, 3 × 10^3 cells/well were grown in 96-well plates for 24 h. After treatment with desired concentration of respective compounds for 24 h or 48 h, the EZ-CYTOTOX (10 µM) reagent was added in each well and incubated for 90 min. The absorbance was measured at 450 nm wavelength using Skanlt software 5.0 (Thermo Scientific, Waltham, MA, USA) installed on a Multiskan GO (Thermo Scientific, Waltham, MA, USA) spectrophotometer. Each experiment was independently repeated three times (n = 12).

[2] = system: HT29 cells; assay: MTT cell viability assay; format: cell-based, human; settings: for IC50: Homo sapiens, HT-29, read-out: relative IC50 (cell viability)
Experimental: as §1

[3] = system: HT29 cells; assay: Clonogenic (colony formation) assay; format: cell-based, human; settings: HT29, 5, 10 and 20 μM
Experimental: Cell proliferation was assayed by in vitro clonogenic assay. To perform the clonogenic assay, HT29 and HCT116 cells (1000 cells/well) were grown in 6-well plates for 24 h. Cells were treated with compound 10 and FTY720 in different concentrations for 12 h and changed fresh medium. Colonies were allowed to grow for two weeks by changing to a fresh medium every 3 days. Colonies were stained with 0.1% crystal violet prepared in 25% […] for 30 min and washed with running water and photographed with Canon Rebel T6i (Tokyo, Kanto, Japan). Colonies were counted using Image J software version 1.53i, National Institutes of Health, Bethesda, MD, USA). Plating efficiency (PE) and surviving fraction (SF) was calculated using the following formula. (1) [Plating efficiency (PE)]=Number of colony count in control/Number of cell seeded [Surviving Fraction]=Number of colony count /Number of cell seeded […]

[4] = system: HCT116 cells; assay: Annexin V-FITC/PI staining, flow cytometry; format: cell-based, human; settings: HCT116, 10 and/or 20 µM, 24 h
Experimental: (§2) After treating HT29 and HCT116 cells with compounds 10, 11, 13 and FTY720 according to the manufacturer’s instruction, the annexin V and PI staining technique was employed to determine apoptosis in the cells. Briefly, cells (2.5 × 10^5 cells/well) were seeded in 12-well plates and treated with 10 and/or 20 µM of compounds for 24 h. Cells were collected using trypsin-EDTA and stained with annexin V-FITC dye for 15 min at room temperature, followed by PI staining for 20 min and analyzed by flow cytometer (MACSQuant Analyzer 10; Miltenyi Biotec, Bergisch Gladbach, Germany). The data was analyzed using MACSQuantify^TM version 2.8 software (Miltenyi Biotec, Bergisch Gladbach, Germany) and presented as early apoptosis, late apoptosis, or combined apoptosis percentage. Each experiment was repeated three times independently (n = 6).

[5] = system: HT29 cells; assay: Annexin V-FITC/PI staining, flow cytometry; format: cell-based, human; settings: HT29, 10 and/or 20 µM, 24 h
Experimental: as §2

[6] = system: SK1 in HCT116 cells; assay: Western blotting of SK1 protein expression; format: cell-based, human; settings: HCT116, 10 and 20 µM, 24 h, vs control cells
Experimental: The cell lysate was prepared after successive treatment using mammalian protein extraction buffer (Organic buffer + 10 mM NaCl + detergent pH 7.5) mixed with 1% protease/phosphatase inhibitor cocktail; protein was quantified with BCA assay, boiled at 95 °C for 10 min by adding sample loading buffer, separated using SDS-PAGE, and transferred into methanol-activated PVDF membrane. Primary antibodies were probed overnight in PVDF membrane at 4 °C and […] with subsequent HRP anti-mouse and anti-rabbit secondary antibodies at room temperature. Then, membranes were washed with TBST buffer, and images were detected by Amersham Imager 680 (GE Healthcare; Leiden, WZ, The Netherlands) using ECL solution. Band intensities were analyzed and quantified using Image J software (version 1.53i).

[7] = system: S1P in HCT116 cells; assay: S1P ELISA of cell lysate; format: cell-based, human
Experimental: (§3) The cellular levels of S1P, sphingosine, and ceramide were detected using an ELISA assay kit (MyBioSource, Inc., San Diego, CA, USA) according to the manufacturer’s instruction. For S1P ELISA, 100 µL cell lysates or standards were added in pre-coated ELISA wells, incubated for 90 min at 37 °C, and treated with 1x biotinylated anti S1P antibody for 1 h. Following treatment of HRP conjugated secondary antibody, the substrate was added and allowed to change the color for 15 min; then, the stop solution was added and absorbance was measured at 450 nm using a Multiskan GO (Thermo Scientific, Waltham, MA, USA) microplate spectrophotometer. […] A stop solution (50 µL) was added to each well, and optical density was measured at 450 nm using a microplate reader. […] After incubation, 50 µL substrate A and B was added to the plate and incubated at 37 °C for 20 min; a stop solution (50 µL) was added to each well and optical density was determined at 450 nm using a microplate reader. The concentration of S1P, sphingosine, and ceramide were calculated as ng/mL using respective standard curves constructed by Skanlt microplate reader software 5.0 (Thermo Scientific, Waltham, MA, USA).

[8] = system: sphingosine in HCT116 cells; assay: Sphingosine ELISA of cell lysate; format: cell-based, human; settings: 24 h, vs nontreated control
Experimental: as §3

[9] = system: ceramide in HCT116 cells; assay: Ceramide ELISA of cell lysate; format: cell-based, human; settings: HCT116, 20 µM, 24 h
Experimental: as §3

[10] = biological target: CYP2C19 (Homo sapiens, UniProt P33261); assay: Inhibition of CYP enzymes activity, human liver microsomes; settings: human liver microsomes 0.25 mg/mL, 10 μM, S-mephenytoin substrate
Chain of CYP2C19 (P33261 whole entry): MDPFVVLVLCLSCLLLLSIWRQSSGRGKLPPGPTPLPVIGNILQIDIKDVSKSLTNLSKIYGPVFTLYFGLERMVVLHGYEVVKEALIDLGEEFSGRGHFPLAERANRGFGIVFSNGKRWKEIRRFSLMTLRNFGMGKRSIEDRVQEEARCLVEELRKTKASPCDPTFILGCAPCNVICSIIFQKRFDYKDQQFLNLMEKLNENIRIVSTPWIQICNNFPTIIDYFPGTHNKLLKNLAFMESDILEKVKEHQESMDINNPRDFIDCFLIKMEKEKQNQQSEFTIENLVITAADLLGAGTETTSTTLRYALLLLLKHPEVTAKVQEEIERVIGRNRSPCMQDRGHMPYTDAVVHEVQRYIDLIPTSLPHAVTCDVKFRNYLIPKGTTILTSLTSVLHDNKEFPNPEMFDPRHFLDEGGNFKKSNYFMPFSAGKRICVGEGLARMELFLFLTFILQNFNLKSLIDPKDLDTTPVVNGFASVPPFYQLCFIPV
Experimental: By simultaneously analyzing metabolites, the ability of the six compounds to inhibit drug metabolism enzymes was evaluated.
Metabolites of each CYP coenzyme indicator drug generated through the above reaction were analyzed using the Shimadzu Nexera XR system and TSQ vantage (Thermo). The HPLC column was a Kinetex C18 column (2.1 × 100 mm^2, 2.6 μm particle size; Phenomenex, Torrance, CA, USA), and the mobile phase was distilled water (A) containing 0.1% formic acid and acetonitrile (B) containing 0.1% formic acid. […] The generated metabolites were quantified using MRM (Multiple Reaction Monitoring) quantification modes, and data were analyzed using Xcalibur (version 1.6.1).

With `CCCCCCCOc1ccc(CCN2CCN(CCO)CC2)cc1` [Compound 10, 2-(4-(4-(Heptyloxy)phenethyl)piperazin-1-yl)ethanol] the “cytotoxic effect, comparison” value ([1]; HCT116, 10, 20 and 40 µM, Supplementary Figure S1C) was “higher than compounds 11, 13, and PF-543”, the “cytotoxic effect (cell viability)” value ([1]; HCT116, 20 and 40 µM, 24 h, Figure 2B) was “significant cytotoxic effects in both 20 and 40 µM concentrations” and the IC50 ([1]; HCT116, 24 h treatment) was 10.9 µM. The IC50 ([1]; HCT116, 48 h treatment, 2.5–40 µM) was 8.69 µM, the “cytotoxic effect (cell viability)” value ([2]; HT29, 20 and 40 µM, 24 h, Figure 2A) was “more cytotoxic than RB005 and 5-FU” and the IC50 ([2]; HT29, 24 h treatment) was 10.5 µM. The IC50 ([2]; HT29, 48 h treatment, 2.5–40 µM) was 6.22 µM, the colony formation capacity [3] was “effectively inhibits the colony formation capacity” and the “apoptosis (annexin V assay)” value [4] was “induced apoptosis”. For the same compound, the “apoptosis (annexin V assay)” value [5] was “induced apoptosis”, the “SK1 protein expression level” value [6] was “does not affect” and the S1P level decrease [7] was 42%. For the same compound, the S1P level ([7]; HCT116, 10 and 20 µM, 24 h, vs nontreated control) was “significantly reduces”, the sphingosine level increase ([8]; HCT116, 10 µM) was 1.42 fold and the sphingosine level increase ([8]; HCT116, 20 µM) was 1.74 fold. For the same compound, the ceramide level [9] was “increased” and the “CYP2C19 activity (% of control activity)” value [10] was 96.5%.
